Measured values from patent publication US10947237B2, “Antimicrobial compounds and methods of making and using the same” (BIOVERSYS AG, priority 2015, dated 2021).

What was measured:
[1] = system: Eschericia coli (E. Coli) strain ATCC25922; assay: standard microdilution assay, minimum inhibitory concentration (MIC); type: cell-based; settings: Escherichia coli; Table 2; strain ATCC25922
Procedure: (§1) The in vitro activity of the compounds of the present disclosure can be determined. Antimicrobial testing is typically performed to determine the minimum inhibitory concentration (MIC). Minimum inhibitory concentrations (MICs) are determined by the microdilution method in a final volume of 100 μl according to protocols outlined by The Clinical and Laboratory Standards Institute (CLSI). Performance standards for reference strains are assessed within the same experimental design to maintain quality control. See, for example, Clinical Laboratory Standards Institute: Methods for dilution antimicrobial susceptibility tests for bacteria that grow aerobically M7-A8. Approved Standard-Eighth Edition. Wayne, Pa.: CLSI; December 2008; and Clinical Laboratory Standards Institute: Performance Standards for Antimicrobial Susceptibility Testing M100-S20; Approved Standard-Twentieth Edition. Wayne, Pa.: CLSI; June 2010. The compounds of the present disclosure were tested for antimicrobial activity. The Compounds 1-149 were run against Eschericia coli (E. Coli) strain ATCC25922 and against Staphylococcus aureus (S. aureus) 11540 strain using a standard microdilution assay to determine minimum inhibitory concentrations (MICs). […] It will be recognized by one skilled in the art that the compounds can be assessed against other bacterial organisms and that the presentation of data for activity against Eschericia coli and Staphylococcus aureus are illustrative and in no way is intended to limit the scope of the present disclosure. The compounds of the present disclosure can be assayed against a range of other microorganisms depending upon the performance activity desired to be gathered. Furthermore, the “+” and “−” representation and the selection of a cutoff value of 16 micrograms/mL is also illustrative and in no way is intended to limit the scope of the present disclosure.

[2] = system: Staphylococcus aureus (S. aureus) 11540 strain; assay: as above; type: cell-based; settings: Table 2, 11540 strain
Procedure: as §1

## C[C@H](N)CCCc1cc(Cl)c(F)c(-c2cc3cn(-c4ccc(CN[C@H](CCNC(=N)N)Cc5ncon5)cc4)c(=O)nc3[nH]2)c1 [Compound 45]
[1]
  MIC: ≤ 16 µg/mL
[2]
  MIC: ≤ 16 µg/mL

## C[C@H](N)CCCc1cc(Cl)c(F)c(-c2cc3cn(-c4ccc(CN[C@H](CCNC(=N)N)CNc5cc(=O)cc[nH]5)cc4)c(=O)nc3[nH]2)c1 [Compound 46]
[1]
  MIC: ≤ 16 µg/mL
[2]
  MIC: ≤ 16 µg/mL

## COc1ccnc(NC[C@@H](CCNC(=N)N)NCc2ccc(-n3cc4cc(-c5cc(CCC[C@H](C)N)cc(Cl)c5F)[nH]c4nc3=O)cc2)c1 [Compound 47]
[1]
  MIC: ≤ 16 µg/mL
[2]
  MIC: ≤ 16 µg/mL

## C[C@H](N)CCCc1cc(Cl)c(F)c(-c2cc3cn(-c4ccc(CN[C@H](CCNC(=N)N)CNc5cnccn5)cc4)c(=O)nc3[nH]2)c1 [Compound 48]
[1]
  MIC: ≤ 16 µg/mL
[2]
  MIC: ≤ 16 µg/mL

## C[C@H](N)CCCc1cc(Cl)c(F)c(-c2cc3cn(-c4ccc(CN[C@H](CCNC(=N)N)CNc5nnn[nH]5)cc4)c(=O)nc3[nH]2)c1 [Compound 49]
[1]
  MIC: ≤ 16 µg/mL
[2]
  MIC: ≤ 16 µg/mL

## Cc1nc(NC[C@@H](CCNC(=N)N)NCc2ccc(-n3cc4cc(-c5cc(CCC[C@H](C)N)cc(Cl)c5F)[nH]c4nc3=O)cc2)sc1C [Compound 50]
[1]
  MIC: ≤ 16 µg/mL
[2]
  MIC: ≤ 16 µg/mL

## Cc1nnc(NC[C@@H](CCNC(=N)N)NCc2ccc(-n3cc4cc(-c5cc(CCC[C@H](C)N)cc(Cl)c5F)[nH]c4nc3=O)cc2)o1 [Compound 51]
[1]
  MIC: ≤ 16 µg/mL
[2]
  MIC: ≤ 16 µg/mL

## Cc1nc(NCC[C@H]2CCC[C@H](c3ccc(-n4cc5cc(-c6cc(CCC[C@H](C)N)cc(OC(F)(F)F)c6F)[nH]c5nc4=O)cc3)N2)[nH]c1C [Compound 53]
[1]
  MIC: ≤ 16 µg/mL
[2]
  MIC: ≤ 16 µg/mL

## C[C@H](N)CCCc1cc(Cl)c(F)c(-c2cc3cn(-c4ccc(CN[C@H](CCNC(=N)N)CNc5cccnc5)cc4)c(=O)nc3[nH]2)c1 [Compound 54]
[1]
  MIC: ≤ 16 µg/mL
[2]
  MIC: ≤ 16 µg/mL

## Cc1nnc(NC[C@@H](CCNC(=N)N)NCc2ccc(-n3cc4cc(-c5cc(CCC[C@H](C)N)cc(Cl)c5F)[nH]c4nc3=O)cc2)[nH]1 [Compound 55]
[1]
  MIC: ≤ 16 µg/mL
[2]
  MIC: ≤ 16 µg/mL

## C[C@H](N)CCCc1cc(Cl)c(F)c(-c2cc3cn(-c4ccc(CN[C@H](CCNC(=N)N)CNc5nc6cnccc6o5)cc4)c(=O)nc3[nH]2)c1 [Compound 56]
[1]
  MIC: ≤ 16 µg/mL
[2]
  MIC: ≤ 16 µg/mL

## C[C@H](N)CCCc1cc(Cl)c(F)c(-c2cc3cn(-c4ccc(CN[C@@H](CCN)CCNC(=N)N)cc4)c(=O)nc3[nH]2)c1 [Compound 57]
[1]
  MIC: ≤ 16 µg/mL
[2]
  MIC: ≤ 16 µg/mL

## C[C@H](N)CCCc1cc(Cl)c(F)c(-c2cc3cn(-c4ccc(CN[C@H](CCNC(=N)N)CNc5ccncc5)cc4)c(=O)nc3[nH]2)c1 [Compound 58]
[1]
  MIC: ≤ 16 µg/mL
[2]
  MIC: ≤ 16 µg/mL

## C[C@H](N)CCCc1cc(Cl)c(F)c(-c2cc3cn(-c4ccc(CO[C@H](CO)CCNC(=N)N)cc4)c(=O)nc3[nH]2)c1 [Compound 59]
[1]
  MIC: ≤ 16 µg/mL
[2]
  MIC: ≤ 16 µg/mL

## C[C@H](N)CCCc1cc(Cl)c(F)c(-c2cc3cn(-c4ccc(CO[C@@H](CCNC(=N)N)CNc5nccs5)cc4)c(=O)nc3[nH]2)c1 [Compound 60]
[1]
  MIC: ≤ 16 µg/mL
[2]
  MIC: ≤ 16 µg/mL

## C[C@H](N)CCCc1cc(Cl)c(F)c(-c2cc3cn(-c4ccc(CN[C@H](CCNC(=N)N)CC(N)=O)cc4)c(=O)nc3[nH]2)c1 [Compound 61]
[1]
  MIC: ≤ 16 µg/mL
[2]
  MIC: ≤ 16 µg/mL

## C[C@H](N)CCCc1cc(Cl)c(F)c(-c2cc3cn(-c4ccc(CN[C@H](CCNC(=N)N)CNc5ccc[nH]c5=O)cc4)c(=O)nc3[nH]2)c1 [Compound 62]
[1]
  MIC: ≤ 16 µg/mL
[2]
  MIC: ≤ 16 µg/mL

## COc1ncccc1NC[C@@H](CCNC(=N)N)NCc1ccc(-n2cc3cc(-c4cc(CCC[C@H](C)N)cc(Cl)c4F)[nH]c3nc2=O)cc1 [Compound 63]
[1]
  MIC: ≤ 16 µg/mL
[2]
  MIC: ≤ 16 µg/mL

## C[C@H](N)CCCc1cc(Cl)c(F)c(-c2cc3cn(-c4ccc(CO[C@H](CCNC(=N)N)CNC(=N)N)cc4)c(=O)nc3[nH]2)c1 [Compound 64]
[1]
  MIC: ≤ 16 µg/mL
[2]
  MIC: ≤ 16 µg/mL

## Cc1ccncc1NC[C@@H](CCNC(=N)N)NCc1ccc(-n2cc3cc(-c4cc(CCC[C@H](C)N)cc(Cl)c4F)[nH]c3nc2=O)cc1 [Compound 65]
[1]
  MIC: ≤ 16 µg/mL
[2]
  MIC: ≤ 16 µg/mL

## C[C@H](N)CCCc1cc(Cl)c(F)c(-c2cc3cn(-c4ccc(CO[C@@H](C)CCNC(=N)N)cc4)c(=O)nc3[nH]2)c1 [Compound 66]
[1]
  MIC: ≤ 16 µg/mL
[2]
  MIC: ≤ 16 µg/mL

## CC(=N)NC[C@@H](CCNC(=N)N)NCc1ccc(-n2cc3cc(-c4cc(CCC[C@H](C)N)cc(Cl)c4F)[nH]c3nc2=O)cc1 [Compound 67]
[1]
  MIC: ≤ 16 µg/mL
[2]
  MIC: ≤ 16 µg/mL

## C[C@H](N)CCCc1cc(Cl)c(F)c(-c2cc3cn(-c4ccc(CO[C@@H](CN)CCNC(=N)N)cc4)c(=O)nc3[nH]2)c1 [Compound 68]
[1]
  MIC: ≤ 16 µg/mL
[2]
  MIC: ≤ 16 µg/mL

## C[C@H](N)CCCc1cc(Cl)c(F)c(-c2cc3cn(-c4ccc([C@@H]5CC[C@@H](CNC(=N)N)O5)cc4)c(=O)nc3[nH]2)c1 [Compound 69]
[1]
  MIC: ≤ 16 µg/mL
[2]
  MIC: ≤ 16 µg/mL

## C[C@H](N)CCCc1cc(Cl)c(F)c(-c2cc3cn(-c4ccc([C@@H]5CC[C@H](CNC(=N)N)O5)cc4)c(=O)nc3[nH]2)c1 [Compound 70]
[1]
  MIC: ≤ 16 µg/mL
[2]
  MIC: ≤ 16 µg/mL

## C[C@H](N)CCCc1cc(Cl)c(F)c(-c2cc3cn(-c4ccc(CO[C@@H](CO)CCNC(=N)N)cc4)c(=O)nc3[nH]2)c1 [Compound 71]
[1]
  MIC: ≤ 16 µg/mL
[2]
  MIC: ≤ 16 µg/mL

## CC(=N)NCC[C@H](CO)OCc1ccc(-n2cc3cc(-c4cc(CCC[C@H](C)N)cc(Cl)c4F)[nH]c3nc2=O)cc1 [Compound 72]
[1]
  MIC: ≤ 16 µg/mL
[2]
  MIC: ≤ 16 µg/mL

## C[C@H](N)CCCc1cc(Cl)c(F)c(-c2cc3cn(-c4ccc([C@H]5CC[C@@H](CCNC(=N)N)O5)cc4)c(=O)nc3[nH]2)c1 [Compound 73]
[1]
  MIC: ≤ 16 µg/mL
[2]
  MIC: ≤ 16 µg/mL

## C[C@H](N)CCCc1cc(Cl)c(F)c(-c2cc3cn(-c4ccc([C@H]5CC[C@H](CCNC(=N)N)O5)cc4)c(=O)nc3[nH]2)c1 [Compound 74]
[1]
  MIC: ≤ 16 µg/mL
[2]
  MIC: ≤ 16 µg/mL

## C[C@H](N)CCCc1cc(Cl)c(F)c(-c2cc3cn(-c4ccc(CO[C@H](CCNC(=N)N)CNc5ccccn5)cc4)c(=O)nc3[nH]2)c1 [Compound 75]
[1]
  MIC: ≤ 16 µg/mL
[2]
  MIC: ≤ 16 µg/mL

## C[C@H](N)CCCc1cc(Cl)c(F)c(-c2cc3cn(-c4ccc(CO[C@H](CCNC(=N)N)CNc5ncc[nH]5)cc4)c(=O)nc3[nH]2)c1 [Compound 76]
[1]
  MIC: ≤ 16 µg/mL
[2]
  MIC: ≤ 16 µg/mL

## CC1=NC[C@@H](CCNC(=N)N)N1Cc1ccc(-n2cc3cc(-c4cc(CCC[C@H](C)N)cc(Cl)c4F)[nH]c3nc2=O)cc1 [Compound 77]
[1]
  MIC: ≤ 16 µg/mL
[2]
  MIC: ≤ 16 µg/mL

## C=C[C@H]1C[C@@H](CCNC(=N)N)O[C@H](c2ccc(-n3cc4cc(-c5cc(CCC[C@H](C)N)cc(Cl)c5F)[nH]c4nc3=O)cc2)C1 [Compound 78]
[1]
  MIC: ≤ 16 µg/mL
[2]
  MIC: ≤ 16 µg/mL

## C=C[C@H]1C[C@@H](CCNC(=N)N)O[C@H](c2ccc(-n3cc4cc(C5CCNC5)[nH]c4nc3=O)cc2)C1 (stereo partly shown) [Compound 79]
[1]
  MIC: > 16 µg/mL
[2]
  MIC: > 16 µg/mL

## C=C[C@H]1C[C@@H](CCNC(=N)N)O[C@H](c2ccc(-n3cc4cc(C5CCN(C(=N)N)C5)[nH]c4nc3=O)cc2)C1 (stereo partly shown) [Compound 80]
[1]
  MIC: > 16 µg/mL
[2]
  MIC: > 16 µg/mL

## CCC(=N)NCC[C@@H]1CCC[C@@H](c2ccc(-n3cc4cc(-c5cc(CCC[C@H](C)N)cc(Cl)c5F)[nH]c4nc3=O)cc2)N1 [Compound 81]
[1]
  MIC: ≤ 16 µg/mL
[2]
  MIC: ≤ 16 µg/mL

## CC(C)C(=N)NCC[C@@H]1CCC[C@@H](c2ccc(-n3cc4cc(-c5cc(CCC[C@H](C)N)cc(Cl)c5F)[nH]c4nc3=O)cc2)N1 [Compound 82]
[1]
  MIC: ≤ 16 µg/mL
[2]
  MIC: ≤ 16 µg/mL

## C[C@H](N)CCCc1cc(Cl)c(F)c(-c2cc3cn(-c4ccc([C@@H]5CCC[C@@H](CCNC(=N)C6CC6)N5)cc4)c(=O)nc3[nH]2)c1 [Compound 83]
[1]
  MIC: ≤ 16 µg/mL
[2]
  MIC: ≤ 16 µg/mL

## C[C@H](N)CCCc1cc(Cl)c(F)c(-c2cc3cn(-c4ccc([C@@H]5CCC[C@@H](CCNC(=N)C6CCC6)N5)cc4)c(=O)nc3[nH]2)c1 [Compound 84]
[1]
  MIC: ≤ 16 µg/mL
[2]
  MIC: ≤ 16 µg/mL

## C[C@H](N)CCCc1cc(Cl)c(F)c(-c2cc3cn(-c4ccc([C@@H]5CCC[C@@H](CCNC(=N)CF)N5)cc4)c(=O)nc3[nH]2)c1 [Compound 85]
[1]
  MIC: ≤ 16 µg/mL
[2]
  MIC: ≤ 16 µg/mL

## C[C@H](N)CCCc1cc(Cl)c(F)c(-c2cc3cn(-c4ccc([C@@H]5CCC[C@@H](CCNC(=N)CCl)N5)cc4)c(=O)nc3[nH]2)c1 [Compound 86]
[1]
  MIC: ≤ 16 µg/mL
[2]
  MIC: ≤ 16 µg/mL

## C[C@H](N)CCCc1cc(Cl)c(F)c(-c2cc3cn(-c4ccc([C@H]5CC(CCNC(=N)N)CC(CO)O5)cc4)c(=O)nc3[nH]2)c1 (stereo partly shown) [Compound 87]
[1]
  MIC: ≤ 16 µg/mL
[2]
  MIC: ≤ 16 µg/mL

## C[C@H](N)CCCc1cc(Cl)c(F)c(-c2cc3cn(-c4ccc([C@@H]5CC(CCNC(=N)N)CC(CO)O5)cc4)c(=O)nc3[nH]2)c1 (stereo partly shown) [Compound 88]
[1]
  MIC: ≤ 16 µg/mL
[2]
  MIC: ≤ 16 µg/mL

## C[C@H](N)CCCc1cc(Cl)c(F)c(-c2cc3cn(-c4ccc([C@@H]5C/C(=C/CNC(=N)N)CC(CO)O5)cc4)c(=O)nc3[nH]2)c1 (stereo partly shown) [Compound 89]
[1]
  MIC: ≤ 16 µg/mL
[2]
  MIC: ≤ 16 µg/mL
